The source made the active and inactive calls. No cut-off for these calls is given here.
What was measured:
HEK293 = test: Induction of apoptosis in 293 cells at 1.25 ug/mL; format: functional, cell-based; settings: Homo sapiens
K562 [1] = test: Growth inhibition of human K562 cells at 0.4 ug/mL after 48 hrs by MTT assay; format: functional; settings: K562, 48 h
UT7 [2] = test: Growth inhibition of human UT7 cells at 0.4 ug/mL after 48 hrs by MTT assay; format: functional; settings: UT7, 48 h
UT7 [3] = test: Growth inhibition of human UT7 cells by MTT assay; format: functional, cell-based
K562 [4] = test: Growth inhibition of human K562 cells by MTT assay; format: functional, cell-based

Row | Compound | Activity (HEK293) | inhibition at 0.4 µg/mL (K562 [1]) [%] | inhibition at 0.4 µg/mL (UT7 [2]) [%] | Activity (UT7 [3]) | Activity (K562 [4])
1 | C/C(=C/C(=O)CC(C)C)CCC/C(C)=C/CC/C(C)=C/Cn1cnc2c1c(=O)n(C)c(=O)n2C | Active |  |  |  | 
2 | C/C(=C\CC/C(C)=C/Cn1cnc2c1c(=O)n(C)c(=O)n2C)CC/C=C(\C)CC(=O)CC(C)C | Active |  |  |  | 
3 | C/C(=C\CC/C(C)=C/Cn1cnc2c1c(=O)ncn2C)CC/C=C(\C)CC(=O)CC(C)C | Active |  |  |  | 
4 | C/C(=C\CNC=O)CC/C=C(\C)CCC/C(C)=C/C(=O)CC(C)C | Active |  |  |  | 
5 | C/C(=C\Cn1cnc2c1c(=O)ncn2C)CC/C=C(\C)CCC/C(C)=C/C(=O)CC(C)C | Active |  |  |  | 
6 | CNC(=O)c1c(N(C)C=O)ncn1C/C=C(\C)CC/C=C(\C)CC/C=C(\C)CC(=O)CC(C)C | Active |  |  |  | 
7 | CNC(=O)c1c(N(C)C=O)ncn1C/C=C(\C)CC/C=C(\C)CCC/C(C)=C/C(=O)CC(C)C | Active |  |  |  | 
8 | C/C(=C/C(=O)CC(C)C)CCC/C(C)=C/CC/C(C)=C/Cn1cnc2c1C(=O)N(C)CN2C [NUTTIGIN E] | Active | 30 | 50 |  | 
9 | C/C(=C\CC/C(C)=C/Cn1cnc2c1C(=O)N(C)CN2C)CC/C=C(\C)CC(=O)CC(C)C [NUTTINGIN C] | Active | 30 | 50 | Dose-dependent effect | Dose-dependent effect
10 | C/C(=C\Cn1cnc2c1C(=O)N(C)CN2C)CC/C=C(\C)CCC/C(C)=C/C(=O)CC(C)C [NUTTINGIN D] | Active | 30 | 50 | Dose-dependent effect | Dose-dependent effect
